Numbers after ± are expanded uncertainties.
Conditions: for mass density / electrical conductivity / viscosity: 101.33 kPa; for mass density / electrical conductivity / surface tension liquid-gas / viscosity: Liquid; for electrical conductivity: MP522 conductivity meter; for surface tension liquid-gas: Maximal bubble pressure; for viscosity: Capillary tube (Ostwald / Ubbelohde) method

CCCC[n+]1cccc(C)c1.O=S(=O)([N-]S(=O)(=O)C(F)(F)F)C(F)(F)F
Conditions | electrical conductivity [S/m] | mass density [kg/m3] | surface tension liquid-gas [mN/m] | viscosity [mPa·s]
278.15 K | 0.1 ± 0.002 | 1439.9 ± 5.8 | – | –
283.15 K | 0.132 ± 0.003 | 1435.7 ± 5.8 | 29.2 ± 0.3 | –
288.15 K | 0.172 ± 0.004 | 1431.5 ± 5.7 | 28.8 ± 0.3 | –
293.15 K | 0.217 ± 0.005 | 1427.1 ± 5.7 | 28.4 ± 0.3 | –
298.15 K | 0.272 ± 0.006 | 1422.6 ± 5.7 | 28.2 ± 0.3 | 63.2 ± 1.4
303.15 K | 0.335 ± 0.007 | 1418.3 ± 5.7 | 27.8 ± 0.3 | 51.1 ± 1.1
308.15 K | 0.409 ± 0.009 | 1414.2 ± 5.7 | 27.4 ± 0.3 | 41.4 ± 0.9
313.15 K | 0.49 ± 0.01 | 1409.8 ± 5.7 | 27.2 ± 0.3 | 34 ± 0.8
318.15 K | 0.576 ± 0.012 | 1405.1 ± 5.6 | 26.7 ± 0.3 | 28.4 ± 0.6
323.15 K | 0.69 ± 0.014 | 1400.7 ± 5.6 | 26.4 ± 0.3 | 23.9 ± 0.5
328.15 K | 0.796 ± 0.017 | 1396.4 ± 5.6 | 26.1 ± 0.3 | 20.3 ± 0.4
333.15 K | 0.91 ± 0.019 | 1392.1 ± 5.6 | 25.8 ± 0.3 | 17.5 ± 0.4
338.15 K | 1.03 ± 0.021 | 1387.6 ± 5.6 | 25.4 ± 0.3 | 15.2 ± 0.3
343.15 K | 1.16 ± 0.024 | – | – | 13 ± 0.3
348.15 K | 1.3 ± 0.027 | – | – | 11.3 ± 0.3
353.15 K | 1.44 ± 0.029 | – | – | 10 ± 0.2

Conditions | Glass transition temperature [°C]
Glass, DTA | -82.3 ± 3

From the NIST ThermoML archive (doi:10.1021/je300153f)
